Results taken from patent US7795213B2 (POSCO, priority 2002, dated 2010).
pKd: −log10 of the molar value.

Legend:
[1] = molecular target: T1, Aβ/VEGF co-aggregate (Homo sapiens, UniProt P05067); test: Dissociation assay of VEGF from Aβ/VEGF co-aggregate; format: binding; details: after 3 days; 50 mM MES, pH 5.8
T1 construct: purchased BACHEM (Aβ peptides); Amersham Pharmacia Biotech (125I-VEGF)
Procedure: The radioactivity in the supernate was determined. […] The mixtures were separated by SDS-PAGE (10%) and autoradiographed.

[2] = molecular target: T2, pre-aggregated Aβ1-40 (Homo sapiens, UniProt P05067); test: Binding of 125I-VEGF to pre-aggregated Aβ, immediate centrifugation; details: 50 μM Aβ preincubated for 2 days, 1 nM 125I-VEGF, immediately centrifuged
T2 construct: Aβ1-40, Aβ1-42, and Aβ40-1 (BACHEM, Bubendorf, Switzerland) were immobilized on a CM5 sensor chip; purchased BACHEM
Procedure: (§1) The aggregation of Aβ1-40 was determined as described with some modifications (Chang et al., Brain Res Brain Res Protoc 2000;6(1-2):6-12). After a two day incubation of Aβ1-40 (100 μM) with FITC-conjugated Aβ1-40 (1 μM) in 50 mM MES, pH 5.8, at 37° C., the mixture was centrifuged, and fluorescence in the pellet was measured. […] Then the mixtures were centrifuged and radioactivity in pellet was determined in a gamma-counter. […] The radioactivity in the pellet was determined.

[3] = molecular target: T3, immobilized Aβ aggregate (Homo sapiens, UniProt P05067); test: In vitro VEGF trapping on immobilized Aβ aggregate; format: binding; details: 50 μM Aβ aggregated 24 hours and dried on well; radiolabeled VEGF; no inhibitor
T3 construct: Aβ (Aβ) is the major component of senile plaques and is derived from the amyloid precursor protein by proteolytic cleavage
Procedure: The system is simulating VEGF trapping on Aβ plaques under in vitro condition. In the in vitro assay system, 50 μM of Aβ was aggregated at 37° C. for 24 hours and immobilized on the bottom of a well by drying under air for overnight, and then, VEGF labeled with a radioisotope was added to the well, to form VEGF-Aβ binding. After removing unbound VEGF, bound VEGF was determined by measuring radioactivity. […] If certain chemical has inhibitory activity against VEGF-Aβ binding, then the chemical will decrease the amount of VEGF trapped on immobilized Aβ aggregate.

[4] = tested on: Aβ40-1; details: 100 μM Aβ40-1, 1 nM 125I-VEGF165, 37° C., 2 days; P=0.0076
Chain of Aβ40-1 (as listed by the source): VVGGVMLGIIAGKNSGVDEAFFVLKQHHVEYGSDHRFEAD
Procedure: as §1

[5] = molecular target: T4, Aβ1-40 (Homo sapiens, UniProt P05067); test: Surface plasmon resonance binding to Aβ peptide on CM5 sensor chip; details: 100 nM protein; versus alpha2-macroglobulin, alpha1-antichymotrypsin, serum amyloid P component, apolipoprotein E4
T4 construct: Aβ1-40, Aβ1-42, and Aβ40-1 (BACHEM, Bubendorf, Switzerland) were immobilized on a CM5 sensor chip; purchased BACHEM
Procedure: (§2) Aβ1-40, Aβ1-42, and Aβ40-1 (BACHEM, Bubendorf, Switzerland) were immobilized on a CM5 sensor chip (BIAcore AB, Uppsala, Sweden) with an amine coupling kit. Alpha2-macroglobulin, alpha1-antichymotrypsin, serum amyloid P component, apolipoprotein E4, and VEGF165 (100 nM) were allowed to bind to the immobilized Aβ at a flow rate of 10 μl/min and sensorgrams were recorded in real time.

[6] = molecular target: T5, Aβ1-42 (Homo sapiens, UniProt P05067); test: as above; details: 100 nM protein; versus alpha2-macroglobulin, alpha1-antichymotrypsin, serum amyloid P component, apolipoprotein E4
T5 construct: Aβ1-40, Aβ1-42, and Aβ40-1 (BACHEM, Bubendorf, Switzerland) were immobilized on a CM5 sensor chip; purchased BACHEM
Procedure: as §2

[7] = tested on: PC12 cells; test: DCF fluorescence, generation of reactive oxygen species by Aβ; format: cell-based; details: PC12 cells 3 hours
Procedure: 5 μM VEGF165 or 5 μM GST-HBD and 5 μM Aβ1-42 were mixed and incubated at 37° C. for 24 hours. The mixture was added to PC12 cells (6×10^4, cells/well, kindly provided by Dr. Pann-Ghill Suh), and then left for reaction at 37° C. for 3 hours. Then, 100 μM of DCF solution was added to the resulted mixture, reacted for 30 minutes, and then washed with PBS (phosphate-buffered saline). The obtained cells were observed through a fluorescent microscope, and DCF fluorescence was measured, to calculate the level of generation of the reactive oxygen species.

[8] = Keyt et al., J. Biol. Chem. 1996; cited from earlier work
[9] = molecular target: T4, Aβ1-40; test: 125I-VEGF competition binding to immobilized Aβ peptide in microtiter wells; details: read-out: dissociation constant (KD) of VEGF for Aβ; immobilized Aβ1-40; 50 pM 125I-VEGF with increasing unlabeled VEGF; KD=IC50-[125I-VEGF]
[10] = tested on: Aβ40-1
Procedure: as §2

[11] = molecular target: T6, Aβ (Homo sapiens, UniProt P05067); test: Binding of growth factors to Aβ; details: among NGF, bFGF, PDGF, VEGF and midkine
T6 construct: Aβ (Aβ) is the major component of senile plaques and is derived from the amyloid precursor protein by proteolytic cleavage

[12] = molecular target: T4, Aβ1-40; test: Effect of VEGF on the aggregation rate of Aβ, FITC-Aβ1-40 fluorescence in pellet; format: biochemical; details: VEGF 1 μM; 50 μM and 100 μM Aβ1-40; 37° C.
[13] = molecular target: T5, Aβ1-42; test: Thioflavin T assay of Aβ aggregation; format: biochemical; details: 50 μM Aβ1-42, 37° C., 24 hours; VEGF or GST-HBD at various concentrations
Procedure: 10 μM of thioflavin T was added to the mixture and sufficiently mixed. Then, the fluorescence of the mixture was measured at Ex=444 nm and Em=485 nm, and then, compared with that of control of Aβ incubated alone, to determine the affection on aggregation of Aβ.
50 μM Aβ was incubated at 37° C. for 24 hours together with triamterene of 0 μM, 4 μM, 20 μM or 100 μM, respectively, to generate aggregation of Aβ. Then, the degree of aggregation was determined by the thioflavin T assay as illustrated in Example 11.

[14] = molecular target: T4, Aβ1-40; test: Co-aggregation assay of 125I-VEGF165 with Aβ, radioactivity in pellet; format: binding; details: 100 μM Aβ1-40, 1 nM 125I-VEGF165, 37° C., 2 days; approximately 60% of Aβ alone in pellet
Procedure: as §1

- VEGF released from the Aβ/VEGF complex [1]: less than 1.5%
- binding of VEGF to pre-aggregated Aβ (pelleted by centrifugation) [2]: bound to pre-aggregated Aβ
- VEGF trapping into Aβ, share of VEGF added [3]: about 70%
- pKd [9]: ~10.30
- binding to Aβ40-1 (reverse peptide) [10]: did not bind
- binding of growth factor to Aβ [11]: bound to A
- influence of VEGF on the aggregation of Aβ1-40 (time course) [12]: no significant influence
- proportion of 125I-VEGF in the pellet after incubation with Aβ1-40 [14]: About the same proportion
Substance: VEGF
- sedimentation of VEGF in presence of Aβ40-1 [4]: did not cause extensive sedimentation of VEGF
- binding to immobilized Aβ1-40 (surface plasmon resonance) [5]: much more strongly than other molecules that are known to bind to Aβs
- binding to immobilized Aβ1-42 (surface plasmon resonance) [6]: much more strongly than other molecules that are known to bind to Aβs
- generation of the reactive oxygen species, treatment alone ([7]; 5 μM VEGF165 or 5 μM GST-HBD alone): no effect on the generation of the reactive oxygen species
- generation of the reactive oxygen species by Aβ, treatment together with Aβ ([7]; 5 μM VEGF165 or 5 μM GST-HBD with 5 μM Aβ1-42): inhibitory effect on the generation of the reactive oxygen species by Aβ
- bioactivity relative to VEGF121 [8]: 100 fold
- inhibition of aggregation of Aβ (thioflavin T) [13]: inhibit aggregation of Aβ depending on the concentration
